Data on 57 molecules can be found in patent US11198695B2, “Fused ring derivative having MGAT-2 inhibitory activity” (Shionogi & Co., Ltd., priority 2017, dated 2021).

Chain of recombinant human MGAT2 (Q3SYC2 whole entry): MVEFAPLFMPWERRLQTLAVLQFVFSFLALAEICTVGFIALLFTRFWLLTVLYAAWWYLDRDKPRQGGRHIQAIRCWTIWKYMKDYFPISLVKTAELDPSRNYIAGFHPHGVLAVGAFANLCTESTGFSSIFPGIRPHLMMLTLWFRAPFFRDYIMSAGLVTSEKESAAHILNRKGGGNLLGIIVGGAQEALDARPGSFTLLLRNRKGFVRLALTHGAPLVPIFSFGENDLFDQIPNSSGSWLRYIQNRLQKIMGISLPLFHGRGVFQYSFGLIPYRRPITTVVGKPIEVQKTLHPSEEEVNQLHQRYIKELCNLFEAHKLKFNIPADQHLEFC

The target of the test is recombinant human MGAT2 (Homo sapiens (Human), UniProt Q3SYC2). The test is described as follows: Measurement of human MGAT2 inhibitory activity. Format: biochemical. Particulars: read-out: IC50 (concentration exhibiting 50% enzyme inhibition), Table 52. In short, it runs like this:
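RapidFire ESI-MS read-out of the diolein/diolein-d5 peak ratio gave % inhibition, with no-enzyme and full-enzyme wells as 100% and 0%. Reactions ran 1 h at room temperature at pH 7.4 (phosphate, 2 mmol/L DTT), using Flag-tagged human MGAT2 membranes from Sf9 cells and a substrate solution of 30 μmol/L 2-oleoylglycerol and 10 μmol/L oleoyl-CoA.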
For the molecule `N#CC1(C(=O)NCc2c3c(nn2CCC2CC2)C[C@]2(CCc4cc(OCC(F)(F)F)ccc42)NC3=O)CC1` [Compound I-153], the IC50 was determined as 240 nM.

Turning to `O=C(NCc1c2c(nn1CCC1CC1)C[C@]1(CCc3cc(OCC(F)(F)F)ccc31)NC2=O)c1cocn1` [Compound I-154], the IC50 worked out at 530 nM.

As for `CC(C)(O)C(=O)NCc1c2c(nn1CCC1CC1)C[C@]1(CCc3cc(OCC(F)(F)F)ccc31)NC2=O` [Compound I-155], the IC50 was 180 nM.

Take `O=C1N[C@@]2(CCc3cc(OCC(F)(F)F)ccc32)Cc2nn(CCC3CC3)c(CNC(=O)C3(O)CC3)c21` [Compound I-156]: the IC50 turned out to be 920 nM.

`O=C1N[C@@]2(CCc3cc(OCC(F)(F)F)ccc32)Cc2nn(CCC3CC3)c(CNC(=O)C3(C(F)(F)F)CC3)c21` [Compound I-157]: the IC50 worked out at 38 nM.

In the case of `O=C1N[C@@]2(CCc3cc(OCC(F)(F)F)ccc32)Cc2nn(CCC3CC3)c(CNC(=O)C3(C(F)(F)F)CCC3)c21` [Compound I-158], the IC50 was found to be 130 nM.

In the case of `O=C(NCc1c2c(nn1CCC1CC1)C[C@]1(CCc3cc(OCC(F)(F)F)ccc31)NC2=O)c1cnco1` [Compound I-159], the IC50 amounted to 600 nM.

With `CC(C)(C#N)C(=O)NCc1c2c(nn1CCC1CC1)C[C@]1(CCc3cc(OCC(F)(F)F)ccc31)NC2=O` [Compound I-160], the IC50 worked out at 78 nM.

`O=C1N[C@@]2(CCc3cc(OCC(F)(F)F)ccc32)Cc2nn(CCC3CC3)c(CNC(=O)C3CS(=O)(=O)C3)c21` [Compound I-161]: the IC50 turned out to be 430 nM.

As to `CS(=O)(=O)CC(=O)Nc1c2c(nn1-c1ccc(C#N)cn1)C[C@]1(CCc3cc(OCC(F)(F)F)cc(F)c31)NC2=O` [Compound I-162], the IC50 worked out at 1.9 nM.

As to `CS(=O)(=O)CC(=O)Nc1c2c(nn1-c1ccc(C#N)cn1)C[C@]1(CCc3cc(N4CC(F)(F)C4)ccc31)NC2=O` [Compound I-163], the IC50 is 3.6 nM.

For the molecule `CS(=O)(=O)CC(=O)Nc1c2c(nn1-c1ccc(C#N)cc1)C[C@]1(CCc3cc(F)cc(F)c31)NC2=O` [Compound I-164], the IC50 turned out to be 86 nM.

As to `CS(=O)(=O)CC(=O)Nc1c2c(nn1CCC1CC1)C[C@@]1(CCc3cc(N4CC(F)(F)C4)ccc31)NC2=O` [Compound I-165], the IC50 was determined as 5.2 nM.

As to `CS(=O)(=O)CC(=O)Nc1c2c(nn1CCC1CC1)C[C@@]1(CCc3cc(N4CC(C(F)(F)F)C4)ccc31)NC2=O` [Compound I-166], the IC50 turned out to be 7.1 nM.

For the molecule `CS(=O)(=O)CC(=O)Nc1c2c(nn1-c1ccc(C#N)cn1)C[C@]1(CCc3cc(N4CC(C(F)(F)F)C4)ccc31)NC2=O` [Compound I-168], the IC50 is 5.9 nM.

`CS(=O)(=O)CC(=O)Nc1c2c(nn1-c1ccccn1)C[C@@]1(CCc3cc(OCC(F)(F)F)cc(F)c31)NC2=O` [Compound I-169]: the IC50 was 9.8 nM.

Take `CS(=O)(=O)CC(=O)Nc1c2c(nn1CCC1CC1)C[C@](c1ccc(OCC(F)(F)F)cc1F)(C(F)(F)F)NC2=O` [Compound I-171]: the IC50 worked out at 12 nM.

On to `Cn1cc(C(=O)Nc2c3c(nn2CCC2CC2)C[C@]2(CCc4cc(OCC(F)(F)F)ccc42)NC3=O)nn1` [Compound I-172], for which the IC50 came to 480 nM.

As for `CS(=O)(=O)CC(=O)Nc1c2c(nn1Cc1ccc(C(F)(F)F)o1)C[C@]1(CCc3cc(OCCCC(F)(F)F)ccc31)NC2=O` [Compound I-173], the IC50 is 78 nM.

Take `COc1ccc(C(=O)Nc2c3c(nn2CCC2CC2)C[C@]2(CCc4cc(OCCCC(F)(F)F)ccc42)NC3=O)cc1` [Compound I-174]: the IC50 was 63.7 nM.

For `CS(=O)(=O)CC(=O)Nc1c2c(nn1-c1ccccn1)C[C@]1(CCc3cc(F)cc(F)c31)NC2=O` [Compound I-175], the IC50 came out at 86 nM.

Consider `Cc1cc(C(=O)Nc2c3c(nn2CCC2CC2)C[C@]2(CCc4cc(OCC(F)(F)F)ccc42)NC3=O)no1` [Compound I-176], for which the IC50 worked out at 180 nM.

Take `O=C1N[C@@]2(CCc3cc(OCC(F)(F)F)ccc32)Cc2nn(CCC3CC3)c(NC(=O)c3onc4ccccc34)c21` [Compound I-177]: the IC50 was 610 nM.

Take `CS(=O)(=O)CC(=O)Nc1c2c(nn1CCC1CC1)C[C@]1(CCc3cc(F)cc(F)c31)NC2=O` [Compound I-178]: the IC50 stood at 39 nM.

Take `Cc1cccc(-n2nc3c(c2NC(=O)CS(C)(=O)=O)C(=O)N[C@@]2(CCc4cc(OCCCC(F)(F)F)ccc42)C3)c1` [Compound I-179]: the IC50 was 6.1 nM.

For the molecule `Cc1ccccc1-n1nc2c(c1NC(=O)CS(C)(=O)=O)C(=O)N[C@@]1(CCc3cc(OCCCC(F)(F)F)ccc31)C2` [Compound I-180], the IC50 was 150 nM.

For `O=C1N[C@@]2(CCc3cc(OCC(F)(F)F)ccc32)Cc2nn(CCC3CC3)c(C(=O)NS(=O)(=O)C3CC3)c21` [Compound I-181], the IC50 was found to be 15 nM.

As for `CS(=O)(=O)CC(=O)Nc1c2c(nn1-c1ccc(F)cc1)C[C@]1(CCOc3cc(OCC(F)(F)F)ccc31)NC2=O` [Compound I-182], the IC50 was 2.5 nM.

Regarding `O=C1N[C@@]2(CCc3cc(OCC(F)(F)F)ccc32)Cc2nn(CCC3CC3)c(NC(=O)C3CS(=O)(=O)C3)c21` [Compound I-183], the IC50 came out at 18 nM.

Take `O=C1N[C@@]2(CCc3cc(OCC(F)(F)F)ccc32)Cc2nn(CCC3CC3)c(NC(=O)C3CC(F)(F)C3)c21` [Compound I-184]: the IC50 worked out at 68 nM.

`CS(=O)(=O)CC(=O)Nc1c2c(nn1-c1ccccn1)C[C@]1(CCc3cc(OCC(F)(F)F)cc(F)c31)NC2=O` [Compound I-185]: the IC50 stood at 6.3 nM.

Take `O=C1N[C@@]2(CCc3cc(OCC(F)(F)F)ccc32)Cc2nn(CCC3CC3)c(-c3noc(=O)[nH]3)c21` [Compound I-186]: the IC50 is 7.6 nM.

`O=C1N[C@@]2(CCc3cc(OCC(F)(F)F)ccc32)Cc2nn(CCC3CC3)c(C(=O)O)c21` [Compound I-187]: the IC50 turned out to be 190 nM.

`CS(=O)(=O)CC(=O)Nc1c2c(nn1-c1ccncn1)C[C@]1(CCc3cc(OCC(F)(F)F)ccc31)NC2=O` [Compound I-188]: the IC50 came to 52 nM.

For the molecule `CS(=O)(=O)CC(=O)Nc1c2c(nn1-c1ccc(C(F)(F)F)cn1)C[C@]1(CCc3cc(OCC(F)(F)F)ccc31)NC2=O` [Compound I-189], the IC50 is 1.2 nM.

As for `CS(=O)(=O)CC(=O)Nc1c2c(nn1CCc1ccccc1)C[C@]1(CCc3cc(OCC(F)(F)F)ccc31)NC2=O` [Compound I-191], the IC50 was 28 nM.

Take `CS(=O)(=O)CC(=O)Nc1c2c(nn1Cc1nc(C(F)(F)F)cs1)C[C@]1(CCc3cc(OCC(F)(F)F)ccc31)NC2=O` [Compound I-192]: the IC50 came to 6.5 nM.

As for `CS(=O)(=O)CC(=O)Nc1c2c(nn1CCCC(F)(F)F)C[C@]1(CCc3cc(OCC(F)(F)F)ccc31)NC2=O` [Compound I-193], the IC50 is 6.1 nM.

As to `CCS(=O)(=O)NCc1c2c(nn1CCC1CC1)C[C@]1(CCc3cc(OCC(F)(F)F)ccc31)NC2=O` [Compound I-194], the IC50 is 460 nM.

On to `O=C1N[C@@]2(CCc3cc(OCC(F)(F)F)ccc32)Cc2nn(CCC3CC3)c(CNS(=O)(=O)C3CC3)c21` [Compound I-195], for which the IC50 amounted to 450 nM.

As for `O=C1N[C@@]2(CCc3cc(OCC(F)(F)F)ccc32)Cc2nn(CCC3CC3)c(C(=O)Nc3ccccc3)c21` [Compound I-196], the IC50 is 1000 nM.

Turning to `CC(C)(O)c1ccc(-n2nc3c(c2NC(=O)CS(C)(=O)=O)C(=O)N[C@@]2(CCc4cc(OCCCC(F)(F)F)ccc42)C3)cc1` [Compound I-197], the IC50 was 24 nM.

With `CS(=O)(=O)CC(=O)Nc1c2c(nn1CCC1CC1)C[C@]1(CCc3cc(NC(=O)CC(F)(F)F)ccc31)NC2=O` [Compound I-198], the IC50 is 67 nM.

For the molecule `O=C(Nc1c2c(nn1CCC1CC1)C[C@]1(CCc3cc(OCC(F)(F)F)ccc31)NC2=O)c1ccncn1` [Compound I-199], the IC50 worked out at 400 nM.

Turning to `CS(=O)(=O)CC(=O)Nc1c2c(nn1CCC1CC1)C[C@]1(CCc3cc(N4CC(F)(F)C4)cc(F)c31)NC2=O` [Compound I-202], the IC50 stood at 6.2 nM.

As to `CS(=O)(=O)CC(=O)Nc1c2c(nn1-c1ccc(F)cn1)C[C@]1(CCc3cc(OCC(F)(F)F)ccc31)NC2=O` [Compound I-203], the IC50 is 2.6 nM.

With `CS(=O)(=O)CC(=O)Nc1c2c(nn1CCC1CC1)C[C@]1(CCc3cc(N4CC(F)(F)C4)ccc31)NC2=O` [Compound I-204], the IC50 amounted to 11.3 nM.

For the molecule `CS(=O)(=O)CC(=O)Nc1c2c(nn1CC1CCOCC1)C[C@]1(CCc3cc(OCCCC(F)(F)F)ccc31)NC2=O` [Compound I-205], the IC50 is 270 nM.

Regarding `CS(=O)(=O)CC(=O)Nc1c2c(nn1CCCC(F)(F)F)C[C@]1(CCc3cc(OCCCC(F)(F)F)ccc31)NC2=O` [Compound I-206], the IC50 stood at 2.4 nM.

Consider `CS(=O)(=O)CC(=O)Nc1c2c(nn1CCCC#N)C[C@]1(CCc3cc(OCCCC(F)(F)F)ccc31)NC2=O` [Compound I-207], for which the IC50 stood at 17.5 nM.

On to `CS(=O)(=O)CC(=O)Nc1nn(CCCC(F)(F)F)c2c1C(=O)N[C@@]1(CCc3cc(OCCCC(F)(F)F)ccc31)C2` [Compound I-208], for which the IC50 amounted to 250 nM.

For `CS(=O)(=O)CC(=O)Nc1c2c(nn1Cc1nc(C(F)(F)F)cs1)C[C@]1(CCc3cc(OCCCC(F)(F)F)ccc31)NC2=O` [Compound I-209], the IC50 came to 3.2 nM.

Take `CS(=O)(=O)CC(=O)Nc1nn(Cc2nc(C(F)(F)F)cs2)c2c1C(=O)N[C@@]1(CCc3cc(OCCCC(F)(F)F)ccc31)C2` [Compound I-210]: the IC50 was found to be 550 nM.

As to `CS(=O)(=O)CC(=O)Nc1c2c(nn1-c1ccc(F)cn1)C[C@@]1(CCc3cc(OCC(F)(F)F)ccc31)NC2=O` [Compound I-211], the IC50 is 2.1 nM.

On to `CS(=O)(=O)CC(=O)NCc1c2c(nn1CCC1CC1)C[C@]1(CCc3cc(OCC(F)(F)F)ccc31)NC2=O` [Compound I-213], for which the IC50 was found to be 43 nM.

For the molecule `CCCC(C)n1nc2c(c1NC(=O)CS(C)(=O)=O)C(=O)N[C@@]1(CCc3cc(OCC(F)(F)F)ccc31)C2` (stereo partly drawn) [Compound I-214], the IC50 is 460 nM.

Consider `O=C(Nc1c2c(nn1CCC1CC1)C[C@]1(CCc3cc(OCC(F)(F)F)ccc31)NC2=O)c1ncccn1` [Compound I-215], for which the IC50 was determined as 420 nM.
